One series relates to tumor cell lines. Nature of the series: Cytostatic activity, ranges over several tumor cell lines. The series is classed as cell-based.
In a further series the test system is Huh 7 cells. The conditions noted are these: cited from earlier work.
For series [1], the system named is HCV replicon (type 1b). The settings on record: read-out: EC50 HCV replicon, Huh 7 cells; cited from earlier work.
The subject of the next series is Feline herpes virus. As to the kind of experiment: organism not typed. It is filed as cell-based. The settings on record: read-out: EC50 Feline herpes virus.
The test system of series [2] is HEL and CrFK cell cultures. Nature of the series: Cytotoxicity. It is filed as cell-based.
Series [3] relates to human and feline herpes viruses. Nature of the series: organism not typed. The series is classed as cell-based. The settings on record: read-out: EC50 against human and feline herpes viruses.
Series [4] has as its system HCV replicon (type 1b). Nature of the series: HCV replicon assay. The series is classed as cell-based. The conditions noted are these: L-alanine vs D-alanine derivative. Background: In antiviral work, replicon cells carry a viral genome segment that copies itself.
A further series has as its system HIV-1(IIIB). The series is classed as cell-based.
The test system of the next series is HIV-2(ROD). It is filed as cell-based.
Another series relates to HIV-1 and HIV-2. It is filed as cell-based.
The nature of series [5]: Cytotoxicity in HCV replicon assay, Huh 7 cells. It is filed as cell-based. The conditions noted are these: human, Huh 7 cells (HCV replicon type 1b).
Another series deals with T1, carboxypeptidase Y (Saccharomyces cerevisiae, UniProt P00729).
T1 sequence (P00729 112-532): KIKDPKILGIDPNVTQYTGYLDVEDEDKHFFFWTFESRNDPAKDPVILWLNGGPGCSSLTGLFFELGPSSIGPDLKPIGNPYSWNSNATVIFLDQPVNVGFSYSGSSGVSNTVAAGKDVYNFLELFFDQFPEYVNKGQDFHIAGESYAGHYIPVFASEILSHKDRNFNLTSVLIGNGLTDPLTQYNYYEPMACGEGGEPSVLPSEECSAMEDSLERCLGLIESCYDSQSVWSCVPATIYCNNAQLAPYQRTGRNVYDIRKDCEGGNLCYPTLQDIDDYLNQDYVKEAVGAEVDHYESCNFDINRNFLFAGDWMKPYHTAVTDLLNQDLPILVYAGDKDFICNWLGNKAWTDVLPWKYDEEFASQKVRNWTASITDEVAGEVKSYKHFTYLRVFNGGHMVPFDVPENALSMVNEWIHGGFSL
Nature of the series: Carboxypeptidase Y-mediated cleavage monitored by 31P NMR. The series is classed as in vitro ADME. The settings on record: d6-acetone and Trizma buffer pH 7.6, room temperature.

A further series relates to HIV-1 (X4LAI.04). Nature of the series: microbe, parasite or virus in culture. It is filed as cell-based.
In series [6] the test system is L1210 (mouse lymphocytic leukemia cells). The series is classed as cell-based. The conditions noted are these: read-out: IC50 (50% inhibitory concentration), proliferation.
Series [7] concerns Herpes simplex virus 1TK−(KOS)ACVr. It is filed as cell-based, herpes simplex virus type 1. The settings on record: read-out: EC50 Herpes simplex virus 1TK−(KOS)ACVr.
For series [8], the system named is Herpes simplex virus 2 (G). The series is classed as cell-based, herpes simplex virus type 2. The conditions noted are these: read-out: EC50 Herpes simplex virus 2 (G).
The test system of series [9] is HeLa (human cervical carcinoma cells). The series is classed as cell-based. The conditions noted are these: read-out: IC50 (50% inhibitory concentration), proliferation.
In series [10] the test system is Herpes simplex virus 1(KOS). It is filed as cell-based, herpes simplex virus type 1. The settings on record: read-out: EC50 Herpes simplex virus 1(KOS).
Another series concerns HeLa/TK− cells. It is filed as cell-based, human. The conditions noted are these: read-out: IC50 (50% inhibitory concentration), proliferation.
Series [11] has as its system CEM (human T-lymphocyte cells). It is filed as cell-based. The conditions noted are these: read-out: IC50 (50% inhibitory concentration), proliferation.
[12] abbreviates: read-out: IC50, range over all tested tumor cell lines.
The mark [13] stands for this setting: read-out: IC50, range over cell lines.

Where two headings read alike, the source gives them in different places.

Consider `Nc1ccn([C@@H]2CS[C@H](CO)O2)c(=O)n1` [Compound 5, lamivudine, reference compound], for which the IC50 in the series on tumor cell lines (setting [12]) was more than 250 µM.
As for `[N-]=[N+]=N[C@]1(CO)O[C@@H](n2ccc(=O)[nH]c2=O)[C@H](O)[C@@H]1O` [Compound 7, 4′-azidouridine], the CC50 (as a rule, the concentration giving 50% cytotoxicity) in the series on Huh 7 cells was more than 100 µM. The concentration for a half-maximal effect (EC50) (as a rule, the midpoint of the concentration-response curve) in the series on HCV replicon (type 1b) [1] is more than 100 µM.
As to `[N-]=[N+]=N[C@]1(CO)O[C@@H](n2ccc(N)nc2=O)[C@H](O)[C@@H]1O` [Compound 8, 4′-azidocytidine], the cytotoxic concentration (CC50) in the series on Huh 7 cells is more than 100 µM. In addition, the 50% effective concentration (EC50) in the series with HCV replicon (type 1b) [1] is 7.13 µM.
With `NC(=O)c1ncn([C@@H]2O[C@H](CO)[C@@H](O)[C@H]2O)n1` [Compound 9, ribavirin], the CC50 in the series on Huh 7 cells is more than 100 µM. The EC50 in the series with HCV replicon (type 1b) [1] is 87 µM.
For `Nc1nc2c(ncn2COCCO)c(=O)[nH]1` [Compound 10, acyclovir, reference compound], the concentration for a half-maximal effect (EC50) with Feline herpes virus was more than 100 µM; in the series on HCV replicon (type 1b) [1] it was 30 µM. The CC50 in the series with Huh 7 cells was more than 30 µM. The “MCC (cytotoxicity)” value in [2] is more than 100 µM.
`NC(=O)c1ncn([C@@H]2O[C@H](CO)[C@@H](O)[C@H]2O)c1N` [Compound 13, acadesine, reference compound]: the EC50 (in the series on Feline herpes virus; in series [3]) was more than 100 µM in each case. Further, the “MCC (cytotoxicity)” value in series [2] is more than 100 µM.
Take `CCOc1nc(N)nc2c1ncn2[C@@H]1O[C@H](COP(=O)(N[C@@H](C)C(=O)OCC(C)(C)C)N[C@@H](C)C(=O)OCC(C)(C)C)[C@@H](O)[C@@]1(C)F` [Compound 14, (2R,3R,4R,5R)-5-(2-amino-6-ethoxy-9H-purin-9-yl)-4-fluoro-2-(hydroxymethyl)-4-methyltetrahydrofuran-3-ol-5′-O-bis-(2,2-dimethylpropoxy-L-alaninyl)-phosphate]: in the series with HCV replicon (type 1b) [4], the “improved anti-HCV activity compared to 15” value came to 4 fold.
For the compound `C[C@H](NP(=O)(N[C@@H](C)C(=O)OCC(C)(C)C)OC[C@@H]1CC[C@H](n2cnc3c(N)ncnc32)O1)C(=O)OCC(C)(C)C` [Compound 19, ddA-5′-O-bis-(2,2-dimethylpropoxy-L-alaninyl)-phosphate], in the series with HIV-1(IIIB), the “boost of activity compared to parent nucleoside, HIV-1” value stood at 72 fold. Moreover, in the series on HIV-2(ROD), the “boost of activity compared to parent nucleoside, HIV-2” value came to 57 fold. Besides, the IC50 in the series with tumor cell lines (setting [13]) lay within 35 to 76 µM.
Consider `Cc1cn([C@H]2C[C@H](N=[N+]=[N-])[C@@H](COP(=O)(N[C@@H](C)C(=O)OCc3ccccc3)N[C@@H](C)C(=O)OCc3ccccc3)O2)c(=O)[nH]c1=O` [Compound 20, 3′-azido-3′-deoxythymidine-5′-O-bis(benzoxy-L-alaninyl)-phosphate], for which, in the series with HIV-1 and HIV-2, the “anti-HIV activity compared to the parent” value is reported as “equipotent to the parent”.
As to `C[C@H](NP(=O)(N[C@@H](C)C(=O)OCc1ccccc1)OC[C@H]1O[C@@H](n2ccc(N)nc2=O)CS1)C(=O)OCc1ccccc1` [Compound 25, 3TC-5′-O-bis(benzoxy-L-alaninyl)-phosphate], the IC50 in the series with tumor cell lines (setting [12]) lay in the range of 38 to 116 µM.
`C[C@H](NP(=O)(N[C@@H](C)C(=O)OCc1ccccc1)OC[C@H]1O[C@@H](n2cnc(C(N)=O)n2)[C@H](O)[C@@H]1O)C(=O)OCc1ccccc1` [Compound 30, ribavirin-5′-O-bis(benzoxy-L-alaninyl)-phoshate] came in with a CC50 in series [5] of more than 100 µM.
In the case of `C[C@H](NP(=O)(N[C@@H](C)C(=O)OCc1ccccc1)OCCOCn1cnc2c(=O)[nH]c(N)nc21)C(=O)OCc1ccccc1` [Compound 32, acyclovir-5′-O-bis[(benzoxy-L-alaninyl)]-phosphate], the EC50 in the series with Feline herpes virus was more than 100 µM; with HIV-1 (X4LAI.04) (Human immunodeficiency virus 1, MT4, 72 h, read-out: EC50 HIV-1), 2 to 4 µM. Besides, the “time to full conversion into metabolite” value on carboxypeptidase Y came out at 7.5 h. Moreover, the “MCC (cytotoxicity)” value in [2] is more than 100 µM. The “boost in activity compared to ACV, HIV-1” value in the series with HIV-1 (X4LAI.04) was more than 60 fold.
Take `C[C@H](NP(=O)(N[C@@H](C)C(=O)OCC(C)(C)C)OCCOCn1cnc2c(=O)[nH]c(N)nc21)C(=O)OCC(C)(C)C` [Compound 33, acyclovir-5′-O-bis[(2,2-dimethylpropoxy-L-alaninyl)]-phosphate]: the half-maximal effective concentration (EC50) in the series on Feline herpes virus was more than 100 µM. Also, the “MCC (cytotoxicity)” value in series [2] was more than 100 µM. For the same compound, in the series on HIV-1 (X4LAI.04), the “boost in activity compared to ACV, HIV-1” value is given as more than 60 fold.
Consider `C[C@H](NP(=O)(N[C@@H](C)C(=O)OCc1ccccc1)OC[C@@H]1C=C[C@H](n2cnc3c(NC4CC4)nc(N)nc32)C1)C(=O)OCc1ccccc1` [Compound 34, abacavir-5′-O-bis(benzoxy-L-alaninyl)-phosphate], for which, in the series on tumor cell lines (setting [13]), the IC50 is 19 to 54 µM.
The same measure, in the same setting: for `C[C@H](NP(=O)(N[C@@H](C)C(=O)OCC(C)(C)C)OC[C@@H]1C=C[C@H](n2cnc3c(NC4CC4)nc(N)nc32)C1)C(=O)OCC(C)(C)C` [Compound 35, abacavir-5′-O-bis-(2,2-dimethylpropoxy-L-alaninyl)-phosphate] the value was 19 to 54 µM.
Regarding `CCCCCc1ccc(-c2cc3cn([C@H]4C[C@H](O)[C@@H](COP(=O)(N[C@@H](C)C(=O)OCc5ccccc5)N[C@@H](C)C(=O)OCc5ccccc5)O4)c(=O)nc3o2)cc1` [Compound 36, 3-(2′-deoxy-β-D-ribofuranosyl)-6-(4-n-pentylphenyl)-2,3-dihydrofuro-[2,3-d]pyrimidin-2-one-5′-O-bis-(benzoxy-L-alaninyl)-phosphate], the 50% effective concentration (EC50) (in the series on Feline herpes virus; in series [3]) was more than 100 µM in each case.
With `C[C@H](NP(=O)(N[C@@H](C)C(=O)OCc1ccccc1)OC[C@H]1O[C@@H](n2cnc(C(N)=O)c2N)[C@H](O)[C@@H]1O)C(=O)OCc1ccccc1` [Compound 38, acadesine-5′-O-bis(benzoxy-L-alaninyl)-phosphate], in the series on Feline herpes virus, the concentration giving a half-maximal response (EC50) was more than 100 µM. Also, the “MCC (cytotoxicity)” value in series [2] was more than 100 µM.
Consider `COC(=O)[C@H](C)NP(=O)(N[C@@H](C)C(=O)OC)OC[C@H]1O[C@@H](n2cnc(C(N)=O)c2N)[C@H](O)[C@@H]1O` [Compound 39, acadesine-5′-O-bis(methoxy-L-alaninyl)-phosphate], for which the EC50 in the series with Feline herpes virus was more than 100 µM. Further, the “MCC (cytotoxicity)” value in [2] is more than 100 µM.
In the case of “acadesine-5′-O-bis(2,2-dimethylpentoxy-L-alaninyl)-phosphate [Compound 40]”, the EC50 (in the series on Feline herpes virus; in series [7]; in series [8]; in series [10]) was more than 100 µM throughout. The IC50 (in series [6]; in series [9]; with HeLa/TK− cells; in [11]) was more than 250 µM in each case. In series [2], the “MCC (cytotoxicity)” value was more than 100 µM.

The values are drawn from paper PMC4358806 (European Journal of Medicinal Chemistry, 2013).
